Structures can show the parent of a compound that is named as a salt.
Tests used:
[1] = Stability tests of COMPOUND A formulations at 40° C./75% RH (discoloration, viscosity, physical state); type: physicochemical; conditions: poloxamer gel formulations, even at higher concentrations of the salt; expected
Excerpt: Table 5 below provides % w/w for COMPOUND A bromide salt polyethylene glycol ointment.

[2] = Single ascending dose first-in-human study: plasma pharmacokinetics; type: in vivo; conditions: healthy subjects, topical poloxamer gel, most samples; quantifiable limit
Protocol: (§1) Four single ascending dose cohorts (six active and two placebo subjects per cohort) were evaluated after topical application of a COMPOUND A topical poloxamer gel at an application rate of 82, 164, 328 and 492 μg active moiety/cm^2 on the volar forearm over a 10 cm^2 area. Two concentrations of a COMPOUND A topical poloxamer gel: 1% (0.82% active moiety) and 3% (2.46% active moiety) were evaluated in this study. The 1% and 3% gels used were made as described in Example 1 above. Safety was evaluated via hematology, biochemistry and urinalysis clinical laboratory analyses, electrocardiograms and adverse event collection for 14 days following dose administration. The clinical laboratory analyses included hematocrit; Hgb; MCH; MCHC; MCV; MPV; PLT; RBC; WBC and differentials (neutrophils, lymphocytes, monocytes, eosinophils, and basophils relative and absolute); biochemistry albumin; alkaline phosphatase; ALT; AST; chloride; creatinine (enzymatic); GGT; glucose random; LDH; potassium; sodium; total bilirubin; urea (BUN); uric acid; urinalysis color, clarity, pH, specific gravity, bilirubin, glucose, ketones, leukocytes, nitrite, blood, protein, urobilinogen and microscopic analysis. Local skin tolerability was assessed using a 4-point ordinal scale, and serial plasma samples for PK analysis were collected for up to 7 days post-application. […]

[3] = Single ascending dose first-in-human study: safety and tolerability; type: in vivo; conditions: healthy subjects
Protocol: The objective of this study was to evaluate the safety, tolerability, pharmacokinetics and effect on tactile stimulation of topical formulations of COMPOUND A in healthy subjects.
Four single ascending dose cohorts (six active and two placebo subjects per cohort) were evaluated after topical application of a COMPOUND A topical poloxamer gel at an application rate of 82, 164, 328 and 492 μg active moiety/cm^2 on the volar forearm over a 10 cm^2 area. Two concentrations of a COMPOUND A topical poloxamer gel: 1% (0.82% active moiety) and 3% (2.46% active moiety) were evaluated in this study. The 1% and 3% gels used were made as described in Example 1 above. Safety was evaluated via hematology, biochemistry and urinalysis clinical laboratory analyses, electrocardiograms and adverse event collection for 14 days following dose administration. The clinical laboratory analyses included hematocrit; Hgb; MCH; MCHC; MCV; MPV; PLT; RBC; WBC and differentials (neutrophils, lymphocytes, monocytes, eosinophils, and basophils relative and absolute); biochemistry albumin; alkaline phosphatase; ALT; AST; chloride; creatinine (enzymatic); GGT; glucose random; LDH; potassium; sodium; total bilirubin; urea (BUN); uric acid; urinalysis color, clarity, pH, specific gravity, bilirubin, glucose, ketones, leukocytes, nitrite, blood, protein, urobilinogen and microscopic analysis. Local skin tolerability was assessed using a 4-point ordinal scale, and serial plasma samples for PK analysis were collected for up to 7 days post-application. The 4-point ordinal scale used was as follows: 0 (None); 1 (Mild); 2 (Moderate); 3 (Severe) for each of the following: erythema, stinging, itching, burning, desquamation, edema, and pain. Semmes-Weinstein microfilaments were used to assess response to tactile stimulation on the treated area of the forearm; these microfilaments were the same as those commonly used to test patients for diabetic neuropathy.

[4] = Observations in mice after single topical application (motor function, reflexes, weakness, grip strength, application site); type: in vivo
Protocol: 3% COMPOUND A in each of the three vehicle formulations prepared as described in Example 1 above—poloxamer (from Table 4 above); hydroxyethylcellulose (HEC) and polyethylene glycol (Ointment) (50 μl) was applied topically to the skin 6 hours prior to the intradermal injection of chloroquine (CQ) (4 mg/ml, 50 μl). […] Following intradermal CQ injection in the ipsilateral neck area, the number of scratches was counted and cumulative counts were recorded by an automated machine for 40 minutes.
Recovery: The condition of the site of injection was examined and observations of redness, swelling or abrasions due to scratching were made prior to and following scratch counting. Animals were euthanized upon completion of the final observations.
Different test articles comprising varying concentrations of COMPOUND A in hydroxyethyl cellulose (HEC) formulations of the specification (“Gel”) and in dimethylsulfoxide (DMSO) vehicle were tested on mice according to the pruritis model described in Example 2. The same strain of mice was used and the animals were housed in the same manner. Each treatment group consisted of 8 mice, and test articles Gel+COMPOUND A 0.3%, 1%, 3% and 5%, and DMSO+COMPOUND A 3% and 5%, were applied topically to the skin six hours prior to the intradermal injection of chloroquine (CQ) (4 mg/ml, 50 μl). […] Following intradermal CQ injection in the ipsilateral neck area, the number of scratches were counted and cumulative counts were recorded by the automated machine for 40 minutes. Following observation, animals were euthanized. In selected groups (Gel+3% COMPOUND A and Gel+5% COMPOUND A) plasma was harvested at 7 hours following the scratch counting. […] Harvested plasma samples were stored at −20° C. prior to analysis.
The carrier gel alone, with no drug, is referred to as “Gel.” Gel and Gel+COMPOUND A 1%,” “Gel+COMPOUND A 2%” and “Gel+COMPOUND A 3% were applied topically to the skin of groups of 8 mice, each of which were subjected to chloroquine injection (CQ; 4 mg/ml, 50μl) according to the pruritis model described in Example 2 at different time points (3 hours, 6 hours and 15 hours) post application of the test or control articles. The same strain of mice as in Example 2 was used, and the animals were housed in the same manner.

[5] = Tachyphylaxis study: body weight, application site and distress observations; type: in vivo
Protocol: For all three phases, the mice were subjected to the pruritis model as described in Example 2. Upon completion of the scratching assessment mice were placed in their home cage and examined at 24 hours for any adverse skin reactions. Phase 3 animals were euthanized for blood collection following completion of the scratching counts. The condition of the site of injection was examined and observations of redness, swelling or abrasions due to scratching were made following scratch counting and at 24 hours post drug application Animals were euthanized upon completion of the final observations. One mouse died during anesthesia on day 5 after application of 3% drug and one mouse was euthanized because of weight loss. Blood plasma was collected on day 5 following the behavior in the Phase 3 animals. Plasma samples were stored on dry ice until analysis. Data was collected, tabulated and analyzed as described in Example 1, and the results of each phase are discussed below.
This study was performed in three phases, to examine the effect of the successive dosing of poloxamer gel formulations according to the present specification, COMPOUND A (1%) COMPOUND A (3%) and COMPOUND A (3% with gel removal 3 hours after application) on scratching behavior after 5 days of treatment. During Phase 1 of this study, four groups of mice (each n=4) received topical poloxamer gel, COMPOUND A (1%) and COMPOUND A (3%) drug. One group received topical application of COMPOUND A (3%), which was removed after 3 hours. To remove the formulation, a piece of gauze that had been saturated with distilled water was used to gently wipe (not rub) the application site from the rostral end to the caudal end 3 times. The skin was then patted dry with clean gauze. If there were lesions present on the skin, then extra care is taken to avoid irritation or redness.
This treatment was continued for 5 days without any CQ injections. On day 5 all these mice received intradermal CQ 3 hours after the last application of the drug (n=4).

[6] = Single ascending dose first-in-human study: tactile stimulation with Semmes-Weinstein microfilaments; type: in vivo; conditions: healthy subjects, treated area of the forearm, normal skin
Protocol: as §1

sodium channel = conditions: through capsaicin-activated TRPV1 channels; cited from earlier work
[7] = following single topical application of the drug

With `Cc1ccccc1N(CC[C@H]1CCCC[N+]1(C)C)C1Cc2ccccc2C1` [COMPOUND A methanesulfonate salt, (R)-2-(2-((2,3-dihydro-1H-inden-2-yl)(o-tolyl)amino)ethyl)-1,1-dimethylpiperidin-1-ium] the Discoloration [1] was “little to no discoloration”.
In the case of `Cc1ccccc1N(CC[C@H]1CCCC[N+]1(C)C)C1Cc2ccccc2C1` [COMPOUND A, (R)-2-(2-((2,3-dihydro-1H-inden-2-yl)(o-tolyl)amino)ethyl)-1,1-dimethylpiperidin-1-ium], the Plasma concentration [2] is reported as under 0.01 ng/mL, the “Local tolerability of the gels (4-point ordinal scale)” value ([3]; topical poloxamer gel 1% and 3%) is reported as “Excellent local tolerability” and the “Tolerability of all doses” value ([3]; topical poloxamer gel 1% and 3%, single dose 82, 164, 328 and 492 μg active moiety/cm^2, volar forearm 10 cm^2) is reported as “well-tolerated”. The “Dose-limiting toxicities or treatment-related adverse events” value ([3]; up to the highest administered dose (492 μg active moiety/cm^2)) was “No dose-limiting toxicities or treatment-related adverse events were reported”, the “Scratching at the site of application prior to injection of CQ” value ([4]; 3% in HEC gel, poloxamer gel or ointment) was “did not display scratching” and the Weakness ([4]; following single topical application) was “No weakness was observed”. For the same molecule, the “Motor function (measured by placing and stepping)” value [4, 7] was “normal”, the “Pinna and corneal reflexes” value [4, 7] was “normal” and the Recovery ([5]; Phase 1, observed until day 9) was “they all recovered their weight and from their redness”. The Body weight ([5]; Phase 1, poloxamer gel 1% and 3%, 5 days) was “slight drop in the weight”, the Lethargy or distress ([5]; Phase 1, poloxamer gel, 5 days) was “No signs of lethargy or distress were observed” and the “Skin at the site of application” value ([5]; Phase 1, poloxamer gel, 5 days (scaly by day 3; redness Day 4 and 5, no gel removal)) was “scaly texture at the site of application”. For the same molecule, the Body weight ([5]; Phase 2, poloxamer gel 0.1% and 0.3%, 5 days) was “No weight loss was observed” and the Tactile stimulation assessments [6] was “No trends were noted”.
In the case of `CC[N+](CC)(CC)CC(=O)Nc1c(C)cccc1C` [QX-314], the Sodium channel activity (sodium channel) is listed as “permeates through capsaicin-activated TRPV1 channels and blocks sodium channel activity”.
